# From patent publication US20180104336A1, “Method of Increasing Radiation Sensitivity of Tumor Cells” (priority 2016, published 2018)
# Entries after “also recorded” stand apart in the source; their conditions may differ.
# Key:
# A549 cells [1] = assay: GSHE experiment: cell viability and toxicity with 10 μM BPTES
# Method: (§1) [^13C5]-glutamine experiments: To determine the fraction of glutathione that is derived directly from glutamine, A549 and H460 cell lines were cultured in 96-well plates in glutamine-free medium supplemented with 0.3 g/L [^13C5]-glutamine. Cell media aliquots were harvested at 12, 24, 36, and 48 hrs. Light microscopy was used at 12 hours to visualize the cells at each dosage. After 48 hours the CellTiter 96, CellTiter-Glo® 2.0, and CellTox™ Green Cytotoxicity assays, (Promega, Madison, Wis.) were utilized to respectively assess cell proliferation, cell viability, and cell death of both the BPTES and [^13C5]-glutamine experiments.
# (§2) Glutathione-monoethyl ester (GSHE) experiments: Cells (7500) were seeded into 96 well plates containing 100 μl complete media. Cells were treated with 10 μM BPTES in DMSO and 0, 1, 5 and 10 mM GSHE. After 48 hrs cells were harvested and cell viability and toxicity were assessed as described above.
# H460 cells [2] = assay: as above
# Method: as §1, §2
# A549 cells [3] = assay: Radiation sensitivity by clonogenic assay; type: cell-based, human; details: 2 μM BPTES 24 h, 4 Gy and 8 Gy, p<0.001
# Method: (§3) Radiation exposure of lung tumor cell lines: Radiation sensitivity was determined by methods described previously. In brief, for colony formation, A549 and H460 cells were seeded in 6-well plates containing 3 ml standard complete medium and allowed to attach for 24 h. Media were changed and cells were grown for another 24 h in standard medium, glutamine-free medium, medium containing 2 μM BPTES (to deplete glutathione), and medium containing only the vehicle. Cells were subsequently radiated using a Faxitron X-ray Generating System (CP-160, Faxitron X-Ray Corp., Wheeling, Ill.). Single-doses of 4 or 8 Gy (Gray) were delivered at a dose rate of 1 Gy/min (150 kVp and 6.6 mA). Cells were then placed in standard complete RPMI medium and allowed to form colonies for 8 days. The surviving colonies (containing >˜50 cells) were stained and counted on a stereomicroscope. Plating efficiency (PE) of cells with each treatment were determined and normalized to that of control untreated cells and the surviving fractions were calculated by dividing the PE of the treated cells by the PE of the control untreated cells.
# H460 cells [4] = assay: Radiation sensitivity by clonogenic assay; type: cell-based, human; details: 2 μM BPTES 24 h, 4 Gy and 8 Gy, p<0.001
# Method: as §3
# A549 cells [5] = assay: GLS inhibition experiment, bright field images of cell death; type: cell-based, human; details: 10, 20, 40 and 100 μM, 48 hrs
# Method: (§4) GLS inhibition experiments: In the mechanistic experiments with BPTES or CB-839, cells (7500) were seeded (Time—24 hrs) into 96-well plates containing 100 μl complete medium, and allowed to attach for 24 hrs. Complete medium was added (Time 0 hrs) containing various concentrations of GLS inhibitors to give the final concentrations of 0.001 to 100 μM. Media aliquots of 25 μl were removed from each well at 24, 36, and 48 hrs to monitor the time course of metabolite consumption and production (metabolomic footprint). Cells were maintained at 37° C., 5% CO2 and 40% humidity until time of harvest. Cell viability was determined using Cell Glow, Cell TOX or MTT assays according to manufacture descriptions.
# H460 cells [6] = assay: as above; type: cell-based, human; details: 10, 20, 40 and 100 μM, 48 hrs
# Method: as §4
# [7] = test system: H460 and A549 lung tumor cells; assay: Glutathione synthesis and excretion after GLS inhibition, cell lines not separated; type: cell-based, human; details: for fold more effective in depletion of glutathione: compared with 100 to 10,000 μM buthionine sulfoximine reported previously; for glutathione synthesis and excretion: in vitro
# Method: as §4, with “Complete medium was added (Time 0 hrs) containing various concentrations of GLS inhibitors to give the final concentrations of 0.001 to 100 μM.” left out
# LC-MS quantitation by liquid chromatography tandem mass spectrometry (LC-MS/MS): Metabolites were extracted from cell pellets by the addition of 3 ml of 50% methanol/0.2% formic acid to the frozen cells in the culture flasks. Cells were scraped from the culture flasks and transferred to 15 ml tubes. Proteins were precipitated from 750 μl cell pellet suspensions by addition of 1050 μl acetonitrile/0.2% formic acid. Metabolites were extracted from 25 or 100 μl culture media from 96 well plates or 25-T flasks, respectively, and with the respective addition of 275 μl or 1300 μl of 40% methanol/60% acetonitrile/0.2% formic acid. Cell pellets or media suspensions were incubated on ice for 30 min, followed by centrifugation for 10 min at 13000 g. Supernatants were transferred to new vials, solvents were removed in a speed vac and the concentrated metabolites stored at -80° C. until analysis.
# Samples were reconstituted in 0.2% formic acid and analyzed by LC-MS/MS (Agilent, 1290 Infinity LC coupled to an Agilent 6490 triple quadrupole mass analyzer). An Agilent Poroshell 2.7 μm C18 (2.1 mm×100 mm) column was operated with a linear gradient from 2% Methanol/0.01% formic acid to 95% Methanol/0.01% formic acid in 10 min. Individual metabolites were monitored in multiple reactions monitoring mode, monitoring specific ion transitions shown in Table 1. The specific ion transitions and retention times for each metabolite were established experimentally using commercially available standard compounds. Quantitation of the individual metabolites were based on external calibration curves that were generated with each set of samples. In the stable isotope tracing experiment, ^13C5-incorporation into subsequent metabolites was determined by monitoring the corresponding m/z ion transitions (Table 1).
# [8] = test system: H460 and A549 lung tumor cells; type: cell-based; details: for cell proliferation and viability: FIG. 4 and FIG. 8
# Method: Media aliquots of 25 μl were removed from each well at 24, 36, and 48 hrs to monitor the time course of metabolite consumption and production (metabolomic footprint). Cells were maintained at 37° C., 5% CO2 and 40% humidity until time of harvest. Cell viability was determined using Cell Glow, Cell TOX or MTT assays according to manufacture descriptions.
# Cells were seed in 6-well and allowed to attach for 1 day.
# as §1, §3
# [9] = test system: total glutathione in serum; assay: Total glutathione (reduced plus oxidized) in serum by LC-MS at day of radiation; type: in vivo, nude mice
# Method: CB-839 was given three times at 20 mg/kg by oral gavage at 28, 16 and 4 hrs prior to a single dose of 18 Gy radiation. CB-839 was administered by oral gavage as solution of 200 mg/kg CB-839 in 200 ul 25% (w/v) hydroxypropyl-b-cyclodextrin in 10 mmol/Lcitrate, pH 2 or 25% (w/v) hydroxypropyl- b-cyclodextrin in 10 mmol/L citrate, pH 2. Thirty minutes prior to radiation treatment, 50 μl blood was taken form tail vein and serum was analyzed for reduced and oxidized GSH by LC-MS. Radiation was given as a single 1Gy/min dose for 2, 4, 8, 12, or 18 min respectively. Tumor volume measurements were repeated at the indicated days until termination of the animals. Tumor volume was computed by multiplying “a” times (“a” X “b”)/2. The “Mean tumor volumes” and “Relative tumor volume” for male and female mice are graphed in FIGS. 9A-B and FIGS. 10A-F, respectively.
# H460 cell-derived tumors = assay: H460 mouse xenograft, tumor volume with and without radiation; type: in vivo, nude mice
# Description: METHOD: Mouse xenograft experiments. For the first in vivo study, H460 cell-derived tumors were engrafted on the hind flank of 20 male. […] (1) control (2) CB-839, (3) 18 Gy radiation and (4) CB-839 plus 18 Gy radiation. For the second in vivo experiment, H460 cell-derived tumors were engrafted on the hind flank of 50 female nude mice. […] (1) Vehicle only, (2) 2 Gy radiation, (3) 4 Gy radiation, (4) 8 Gy radiation, (5) 12 Gy radiation, (6) Vehicle only plus CB-839, (7) 2 Gy radiation plus CB-839, (8) 4 Gy radiation plus CB-839, (9) […], (10) 12 Gy radiation plus CB-839. CB-839 was given three times at 20 mg/kg by oral gavage at 28, 16 and 4 hrs prior to a single dose of 18 Gy radiation. CB-839 was administered by oral gavage as solution of 200 mg/kg CB-839 in 200 ul 25% (w/v) hydroxypropyl-b-cyclodextrin in 10 mmol/[…], pH 2 or 25% (w/v) hydroxypropyl- b-cyclodextrin in 10 mmol/L citrate, pH 2. Thirty minutes prior to radiation treatment, 50 μl blood was taken form tail vein and serum was analyzed for reduced and oxidized GSH by LC-MS. Radiation was given as a single 1Gy/min dose for 2, 4, 8, 12, or 18 min respectively. Tumor volume measurements were repeated at the indicated days until termination of the animals. Tumor volume was computed by multiplying “a” times (“a” X “b”)/2. The “Mean tumor volumes” and “Relative tumor volume” for male and female mice are graphed in FIGS. 9A-B and FIGS. 10A-F, respectively.
# [10] = male nude mice, day #17, CB-839 20 mg/kg oral gavage 28, 16 and 4 hrs before 18 Gy
compound,measurement,setting,value
"O=C(Cc1ccccc1)Nc1nnc(CCSCCc2nnc(NC(=O)Cc3ccccc3)s2)s1 [BPTES, Bis-2-(5-phenyl-acetamido-1,3,4-thiadiazol-2-yl) ethyl sulfide]",cell viability,"A549 cells [1]; 10 μM BPTES, 48 hrs",reduced viability
same,cell viability,"H460 cells [2]; 10 μM BPTES, 48 hrs",reduced viability
same,"radiation response, colony formation compared to control cells",A549 cells [3],radiation-induced reduction in colony formation
same,"radiation response, colony formation compared to control cells",H460 cells [4],radiation-induced reduction in colony formation
same,"cell death, visual",A549 cells [5],visual increase in cell death
same,"cell death, visual",H460 cells [6],visual increase in cell death
same,concentration at which glutathione excretion was essentially abolished,"[7]; FIG. 4, H460 and A549",> 5 µM
same,fold more effective in depletion of glutathione,[7],≥ 100 fold
same,glutathione synthesis and excretion,[7],abolished glutathione excretion
same,cell proliferation and viability,[8],reduced cell proliferation and viability
same,cell growth,[8]; FIGS. 4A-4C,significant growth inhibition
O=C(Cc1cccc(OC(F)(F)F)c1)Nc1ccc(CCCCc2nnc(NC(=O)Cc3ccccn3)s2)nn1 [CB-839],fold more effective in depletion of glutathione,[7],at least 1000 fold
same,glutathione synthesis and excretion,[7],successfully depletes glutathione synthesis and excretion; also recorded: abolished glutathione excretion
same,total glutathione in blood lower,"[9]; female nude mice, time of radiation, three doses of 200 mg/Kg/bw at 28, 16 and 4 hrs earlier",53%
same,serum glutathione reduced,"[9]; in vivo, short term treatment",> 50%
same,total GSH in serum lower compared to none treated mice,"[9]; male nude mice, day #12 prior to radiation, CB-839 three times",56%
same,"response to radiation treatment improved, based on tumor volume over time","H460 cell-derived tumors; H460 xenograft, short term (3 times) CB-839",more than 25%
same,efficacy of short term CB-839 alone,"H460 cell-derived tumors; H460 xenograft, short term (3 times) CB-839, no radiation",does not show efficacy
same,"tumor growth, CB-839 alone","H460 cell-derived tumors; female nude mice, 3 doses orally every 12 hrs",did not affect the tumor growth
same,accelerated tumor growth caused by 2 Gy radiation,"H460 cell-derived tumors; female nude mice, CB-839 plus 2 Gy",prevented
same,"mean tumor size smaller, CB-839 plus radiation compared to CB-839 alone",H460 cell-derived tumors; [10],90%
same,"mean tumor size smaller, CB-839 plus radiation compared to radiation alone",H460 cell-derived tumors; [10],20%
same,"tumor growth, CB-839 alone compared to control","H460 cell-derived tumors; male nude mice, three CB-839 treatments",did not affect subsequent tumor growth
same,cell proliferation and viability,[8],reduced cell proliferation and viability
same,sensitivity to ionizing radiation in vitro,[8]; in vitro,increase sensitivity to ionizing radiation
"CCOC(=O)CNC(=O)[C@H](CS)NC(=O)CC[C@H](N)C(=O)O [GSHE, Glutathione-monoethyl ester]",protection against BPTES-induced cytotoxicity,A549 cells [1]; 1-10 mM GSHE with 10 μM BPTES,dose-dependent protection
same,protection against BPTES-induced cytotoxicity,H460 cells [2]; 1-10 mM GSHE with 10 μM BPTES,dose-dependent protection
